Columns and labels:
DU145 = experiment: CellTiter-Blue cell-based survival/proliferation assay, DU145; settings: Homo sapiens, DU-145; DU145 prostate tumor cell line, 48 h
In short: (§1)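 Tenfold compound dilutions (0–10 μM) were added to 1·10^4 cells/well. Plates incubated 48 h at 37 °C. CellTiter-Blue reduction (4 h, 37 °C) was read as fluorescence at 590 nm, background-corrected with a cell-free blank.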

TOV112D = experiment: CellTiter-Blue cell-based survival/proliferation assay, TOV112D; settings: Homo sapiens; TOV112D ovary tumor cell line, 48 h
In short: as §1

BT20 = experiment: CellTiter-Blue cell-based survival/proliferation assay, BT20; settings: Homo sapiens, BT-20; BT20 breast tumor cell line, 48 h
In short: as §1

KARPAS299 = experiment: CellTiter-Blue cell-based survival/proliferation assay, KARPAS299; settings: Homo sapiens, KARPAS-299, Lymphoma cell line KARPAS299, 48 h, read-out: Anti-tumoral activity (measured IC50) KARPAS299
Protocol: (§2) Cell-Based Proliferation Screening of Compounds
(§3) CellTiter-Blue cell-based survival/proliferation assay (Promega G8080) was performed on tumor cell lines. A total of 1·10^4 cells/well/50 μl were seeded in a 96-wells plate. Treatment was initiated by addition of a 2× drug solution of 1/10 serial dilutions ranging from 0 to 10 μM. Cells were grown for 48 h at 37° C. and then incubated with 10 μl/well of Promega CellTiter-Bleue reagent for 4 h at 37° C. The amount of resorufin dye formed was quantified by its fluorescence emission at 590 nm using a scanning multiwell spectrophotometer (OPTIMA, BMG labtech, France). A blank well without cells was used as a background control for the spectrophotometer.

CLS354 = experiment: CellTiter-Blue cell-based survival/proliferation assay, CLS354; settings: Homo sapiens, CLS-354; CLS354_4 head & neck tumor cell line, 48 h
In short: as §1

HEPG2 = experiment: CellTiter-Blue cell-based survival/proliferation assay, HEPG2; settings: Homo sapiens; HEPG2 liver tumor cell line, 48 h
In short: as §1

[1] = system: panel of about 34 human tumor cell lines; experiment: Cell-based proliferation screening on panel of tumor cell lines; settings: solid tumor cell line, cell line unknown, 48 h, read-out: IC50, solid tumor cell line of column 6 (last section of Table 3)
In short: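 CellTiter-Blue survival assay with 1·10^4 cells/well, each line treated 48 h at 37° C with 1/10 serial dilutions from 0 to 10 μM. Resorufin formed during a 4 h reagent incubation is read by fluorescence at 590 nm. A cell-free blank serves as background.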

SW579 = experiment: CellTiter-Blue cell-based survival/proliferation assay, SW579; settings: Homo sapiens; SW579 head & neck tumor cell line, 48 h
In short: as §1

OPM2 = experiment: CellTiter-Blue cell-based survival/proliferation assay, OPM2; settings: Homo sapiens, OPM-2, Myeloma cell line OPM2, 48 h, read-out: Anti-tumoral activity (measured IC50) OPM2
In short: as §1

HGC27 = experiment: CellTiter-Blue cell-based survival/proliferation assay, HGC27; settings: Homo sapiens, HGC-27; HGC27 stomach tumor cell line, 48 h
In short: as §1

PANC1 = experiment: CellTiter-Blue cell-based survival/proliferation assay, PANC1; settings: Homo sapiens, PANC-1; PANC_1 pancreas tumor cell line, 48 h
In short: as §1

HL60 = experiment: CellTiter-Blue cell-based survival/proliferation assay, HL60; settings: Homo sapiens, HL-60, Leukemia cell line HL60, 48 h, read-out: Anti-tumoral activity (measured IC50) HL60
In short: as §1

PC3 = experiment: CellTiter-Blue cell-based survival/proliferation assay, PC3; settings: Homo sapiens, PC-3; PC3 prostate tumor cell line, 48 h
In short: as §1

HUT78 = experiment: CellTiter-Blue cell-based survival/proliferation assay, HUT78; settings: Homo sapiens, Lymphoma cell line HUT78, 48 h, read-out: Anti-tumoral activity (measured IC50) HUT78
Protocol: as §2, §3

ACHN = experiment: CellTiter-Blue cell-based survival/proliferation assay, ACHN; settings: Homo sapiens; ACHN kidney tumor cell line, 48 h
In short: as §1

REC1 = experiment: CellTiter-Blue cell-based survival/proliferation assay, REC1; settings: Homo sapiens, Lymphoma cell line REC1, 48 h, read-out: Anti-tumoral activity (measured IC50) REC1
Protocol: as §2, §3

AGS = experiment: CellTiter-Blue cell-based survival/proliferation assay, AGS; settings: Homo sapiens; AGS stomach tumor cell line, 48 h
In short: as §1

DLD1 = experiment: CellTiter-Blue cell-based survival/proliferation assay, DLD1; settings: Homo sapiens, DLD-1; DLD_1 colorectal tumor cell line, 48 h
In short: as §1

BXPC3 = experiment: CellTiter-Blue cell-based survival/proliferation assay, BXPC3; settings: Homo sapiens, BXPC-3; BXPC3 pancreas tumor cell line, 48 h
In short: as §1

HEP2 = experiment: CellTiter-Blue cell-based survival/proliferation assay, HEP2; settings: Homo sapiens, HEp-2; HEP2 head & neck tumor cell line, 48 h
In short: as §1

HCT116 = experiment: CellTiter-Blue cell-based survival/proliferation assay, HCT116; settings: Homo sapiens, HCT-116; HCT116 colorectal tumor cell line, 48 h
In short: as §1

A498 = experiment: CellTiter-Blue cell-based survival/proliferation assay, A498; settings: Homo sapiens; A498 kidney tumor cell line, 48 h
In short: as §1

H1299 = experiment: CellTiter-Blue cell-based survival/proliferation assay, H1299; settings: Homo sapiens, NCI-H1299; H1299 lung tumor cell line, 48 h
In short: as §1

CALU6 = experiment: CellTiter-Blue cell-based survival/proliferation assay, CALU6; settings: Homo sapiens, Calu-6; CALU6 lung tumor cell line, 48 h
In short: as §1

MDAMB231 = experiment: CellTiter-Blue cell-based survival/proliferation assay, MDAMB231; settings: Homo sapiens, MDA-MB-231; MDAMB231 breast tumor cell line, 48 h
In short: as §1

A549 = experiment: CellTiter-Blue cell-based survival/proliferation assay, A549; settings: Homo sapiens; A549 lung tumor cell line, 48 h
In short: as §1

MESSA = experiment: CellTiter-Blue cell-based survival/proliferation assay, MESSA; settings: Homo sapiens, MES-SA; MESSA ovary tumor cell line, 48 h
In short: as §1

PLCPRF5 = experiment: CellTiter-Blue cell-based survival/proliferation assay, PLCPRF5; settings: Homo sapiens, PLC-PRF-5; PLC_PRF5 liver tumor cell line, 48 h
In short: as §1

IC50 [1]	Compound	IC50 (DU145)	IC50 (TOV112D)	IC50 (BT20)	IC50 (KARPAS299)	IC50 (CLS354)	IC50 (HEPG2)	IC50 (SW579)	IC50 (OPM2)	IC50 (HGC27)	IC50 (PANC1)	IC50 (HL60)	IC50 (PC3)	IC50 (HUT78)	IC50 (ACHN)	IC50 (REC1)	IC50 (AGS)	IC50 (DLD1)	IC50 (BXPC3)	IC50 (HEP2)	also measured
> 1 µM	CCOCc1ccc(C)c(Nc2ncc(-c3ccc(N4CCN(CCNC(C)=O)C4=O)cc3)o2)c1 [Example 046, N-[2-(3-{4-[2-(5-Ethoxymethyl-(2-methyl-phenylamino))-oxazol-5-yl]-phenyl}-2-oxo-imidazolidin-1-yl)-ethyl]-acetamide]	> 1 µM	> 1 µM	> 1 µM	> 1 µM	> 1 µM	> 1 µM	> 1 µM	> 1 µM	> 1 µM	> 1 µM	> 1 µM	> 1 µM	> 1 µM	> 1 µM	> 1 µM	> 1 µM	> 1 µM	> 1 µM	> 1 µM	IC50 (HCT116): > 1 µM; IC50 (A498): > 1 µM; IC50 (H1299): > 1 µM; IC50 (CALU6): > 1 µM; IC50 (MDAMB231): > 1 µM; IC50 (A549): > 1 µM; IC50 (MESSA): > 1 µM; IC50 (PLCPRF5): > 1 µM
0.1 to 0.5 µM	COc1ccc(C)c(Nc2ncc(-c3ccc(-n4cccn4)cc3)o2)c1 [Example 023, (5-Methoxy-2-methyl-phenyl)-[5-(4-pyrazol-1-yl-phenyl)-oxazol-2-yl]-amine]	> 1 µM	> 1 µM	> 1 µM	0.1 to 0.5 µM	0.1 to 0.5 µM	> 1 µM	> 1 µM	0.1 to 0.5 µM	> 1 µM	> 1 µM	0.1 to 0.5 µM	> 1 µM	0.1 to 0.5 µM	> 1 µM	0.1 to 0.5 µM	> 1 µM	> 1 µM	> 1 µM	> 1 µM	IC50 (HCT116): > 1 µM; IC50 (A498): > 1 µM; IC50 (H1299): > 1 µM; IC50 (CALU6): > 1 µM; IC50 (MDAMB231): > 1 µM; IC50 (A549): > 1 µM; IC50 (MESSA): > 1 µM; IC50 (PLCPRF5): > 1 µM
> 1 µM	CCOCc1ccc(C)c(Nc2ncc(-c3ccc(-n4ccccc4=O)cc3)o2)c1 [Example 049, 1-{4-[2-(5-Ethoxymethyl-(2-methyl-phenylamino))-oxazol-5-yl]-phenyl}-1H-pyridin-2-one]	> 1 µM	> 1 µM	> 1 µM	> 1 µM	> 1 µM	> 1 µM	> 1 µM	> 1 µM	> 1 µM	> 1 µM	> 1 µM	> 1 µM	> 1 µM	> 1 µM	> 1 µM	> 1 µM	> 1 µM	> 1 µM	> 1 µM	IC50 (HCT116): > 1 µM; IC50 (A498): > 1 µM; IC50 (H1299): > 1 µM; IC50 (CALU6): > 1 µM; IC50 (MDAMB231): > 1 µM; IC50 (A549): > 1 µM; IC50 (MESSA): > 1 µM; IC50 (PLCPRF5): > 1 µM
0.5 to 1 µM	CCOCc1ccc(C)c(Nc2ncc(-c3ccc(-c4ccc[nH]c4=O)cc3)o2)c1 [Example 050, 3-{4-[2-(5-Ethoxymethyl-(2-methyl-phenylamino))-oxazol-5-yl]-phenyl}-1H-pyridin-2-one]	> 1 µM	> 1 µM	> 1 µM	0.1 to 0.5 µM	> 1 µM	> 1 µM	> 1 µM	0.5 to 1 µM	> 1 µM	> 1 µM	0.5 to 1 µM	> 1 µM	> 1 µM	> 1 µM	0.5 to 1 µM	> 1 µM	> 1 µM	> 1 µM	> 1 µM	IC50 (HCT116): > 1 µM; IC50 (A498): > 1 µM; IC50 (H1299): > 1 µM; IC50 (CALU6): > 1 µM; IC50 (MDAMB231): > 1 µM; IC50 (A549): > 1 µM; IC50 (MESSA): > 1 µM; IC50 (PLCPRF5): > 1 µM
0.5 to 1 µM	CCOCc1ccc(C)c(Nc2ncc(-c3ccc(-c4ccccn4)cc3)o2)c1 [Example 048, (5-Ethoxymethyl-2-methyl-phenyl)-[5-(4-pyridin-2-yl-phenyl)-oxazol-2-yl]-amine]	> 1 µM	> 1 µM	> 1 µM	0.5 to 1 µM	0.5 to 1 µM	> 1 µM	> 1 µM	0.5 to 1 µM	> 1 µM	> 1 µM	0.1 to 0.5 µM	> 1 µM	0.5 to 1 µM	> 1 µM	0.5 to 1 µM	> 1 µM	> 1 µM	> 1 µM	> 1 µM	IC50 (HCT116): > 1 µM; IC50 (A498): > 1 µM; IC50 (H1299): > 1 µM; IC50 (CALU6): > 1 µM; IC50 (MDAMB231): > 1 µM; IC50 (A549): > 1 µM; IC50 (MESSA): > 1 µM; IC50 (PLCPRF5): > 1 µM
> 1 µM	CCOCc1ccc(C)c(Nc2ncc(-c3ccc(-n4ccc(C)n4)cc3)o2)c1 [Example 039, (5-Ethoxymethyl-2-methyl-phenyl)-{5-[4-(3-methyl-pyrazol-1-yl)-phenyl]-oxazol-2-yl}-amine]	> 1 µM	> 1 µM	> 1 µM	0.5 to 1 µM	> 1 µM	> 1 µM	> 1 µM	> 1 µM	> 1 µM	> 1 µM	0.5 to 1 µM	> 1 µM	0.5 to 1 µM	> 1 µM	0.5 to 1 µM	> 1 µM	> 1 µM	> 1 µM	> 1 µM	IC50 (HCT116): > 1 µM; IC50 (A498): > 1 µM; IC50 (H1299): > 1 µM; IC50 (CALU6): > 1 µM; IC50 (MDAMB231): > 1 µM; IC50 (A549): > 1 µM; IC50 (MESSA): > 1 µM; IC50 (PLCPRF5): > 1 µM
> 1 µM	CNC(=O)c1ccc(C)c(Nc2ncc(-c3ccc(-n4cccn4)cc3)o2)c1 [Example 031, 4,N-Dimethyl-3-[5-(4-pyrazol-1-yl-phenyl)-oxazol-2-ylamino]-benzamide]	> 1 µM	> 1 µM	> 1 µM	0.1 to 0.5 µM	> 1 µM	> 1 µM	> 1 µM	> 1 µM	> 1 µM	> 1 µM	> 1 µM	> 1 µM	> 1 µM	> 1 µM	> 1 µM	> 1 µM	> 1 µM	> 1 µM	> 1 µM	IC50 (HCT116): > 1 µM; IC50 (A498): > 1 µM; IC50 (H1299): > 1 µM; IC50 (CALU6): > 1 µM; IC50 (MDAMB231): > 1 µM; IC50 (A549): > 1 µM; IC50 (MESSA): > 1 µM; IC50 (PLCPRF5): > 1 µM
